Laboratory results taken from patent US20230021483A1, “[…] […] METHOD AND CLASSIFICATION OF PHARMACEUTICAL COMPONENTS BY USING TRANSCRIPTOMES” (National Institutes of Biomedical Innovation, Health and …, priority 2016, published 2023).

How the values were obtained:
[1] = test system: adjuvant-associated biological themes in LV, SP, LN
How it was run: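 Per-mouse whole-organ transcriptomes; genes with eij/ei(c)>2.0 tested for theme enrichment via TargetMine (GO, KEGG, Reactome, others), Fisher's exact test, Holm-Bonferroni correction. Themes shared by all three mice kept at p<0.05, using the smallest p. Score per adjuvant-associated term = Σ−log(p) of matching themes.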

liver (LV) = experiment: Whole organ transcriptome (GeneChip microarray) of liver 6 h after adjuvant administration: sDEGs, hierarchical clustering; type: in vivo, C57BL/6 mice; details: liver; for adjuvant group (cluster) in LV: key: G1 (interferon signaling); G2 (metabolism of lipids and lipoproteins); G3 (response to stress); G4 (response to wounding); G5 (phosphate-containing compound metabolic process); G6 (phagosome)

## heptanoyl-γ-D-glutamyl-(L)-meso-diaminopimelyl-(D)-alanine [FK565]
[1]; LV, ID
  IFN alpha, GO annotation line 1 of 5: 4.54
  IFN alpha, GO annotation line 2 of 5: 0
  IFN alpha: cellular response to interferon-alpha: 0
  IFN alpha: positive regulation of interferon-alpha production: 0
  IFN alpha: regulation of interferon-alpha production: 0
  IFN beta: cellular response to interferon-beta: 9.65
  IFN beta: interferon-beta production: 0
  IFN beta: positive regulation of interferon-beta production: 0
  IFN beta: regulation of interferon-beta production: 0
  IFN beta: response to interferon-beta: 17.3
  IFN gamma: cellular response to interferon-gamma: 0
  IFN gamma: interferon-gamma production: 0
  IFN gamma: regulation of interferon-gamma production: 0
  IFN gamma: response to interferon-gamma: 11
  NF-kappa B signaling pathway, GO annotation line 1 of 4: 19.8
  NF-kappa B signaling pathway, GO annotation line 3 of 4: 3.05
  NF-kappa B signaling pathway, GO annotation line 4 of 4: 5.82
  TNF signaling pathway: 30.9
  adaptive immune response, GO annotation line 1 of 5: 8.99
  adaptive immune response, GO annotation line 2 of 5: 8.71
  adaptive immune response, GO annotation line 3 of 5: 3.56
  adaptive immune response, GO annotation line 4 of 5: 0
  adaptive immune response, GO annotation line 5 of 5: 0
  apoptosis, GO annotation line 1 of 8: 15.2
  apoptosis, GO annotation line 2 of 8: 13
  apoptosis, GO annotation line 3 of 8: 19.9
  apoptosis, GO annotation line 4 of 8: 13.9
  apoptosis, GO annotation line 5 of 8: 6.58
  apoptosis, GO annotation line 6 of 8: 13.2
  apoptosis, GO annotation line 7 of 8: 0
  apoptosis, GO annotation line 8 of 8: 8.33
  cell death, GO annotation line 1 of 9: 21.7
  cell death, GO annotation line 2 of 9: 16.4
  cell death, GO annotation line 3 of 9: 15.7
  cell death, GO annotation line 4 of 9: 14
  cell death, GO annotation line 5 of 9: 12.9
  cell death, GO annotation line 6 of 9: 7.1
  cell death, GO annotation line 7 of 9: 7.29
  cell death, GO annotation line 8 of 9: 0
  cell death, GO annotation line 9 of 9: 0
  chemokine, GO annotation line 1 of 4: 0
  chemokine, GO annotation line 2 of 4: 0
  chemokine, GO annotation line 3 of 4: 0
  chemokine, GO annotation line 4 of 4: 0
  chemotaxis, GO annotation line 1 of 11: 16.1
  chemotaxis, GO annotation line 2 of 11: 0
  chemotaxis, GO annotation line 4 of 11: 5.48
  chemotaxis, GO annotation line 5 of 11: 0
  chemotaxis, GO annotation line 6 of 11: 5.83
  chemotaxis, GO annotation line 7 of 11: 6.49
  chemotaxis, GO annotation line 8 of 11: 0
  chemotaxis, GO annotation line 9 of 11: 0
  chemotaxis, GO annotation line 10 of 11: 0
  chemotaxis, GO annotation line 11 of 11: 0
  cytokine, GO annotation line 1 of 17: 37.8
  cytokine, GO annotation line 2 of 17: 32.6
  cytokine, GO annotation line 3 of 17: 23.6
  cytokine, GO annotation line 4 of 17: 17.1
  cytokine, GO annotation line 5 of 17: 30.2
  cytokine, GO annotation line 6 of 17: 27.5
  cytokine, GO annotation line 7 of 17: 8.69
  cytokine, GO annotation line 8 of 17: 16.2
  cytokine, GO annotation line 9 of 17: 17
  cytokine, GO annotation line 10 of 17: 18.6
  cytokine, GO annotation line 11 of 17: 3.46
  cytokine, GO annotation line 12 of 17: 14
  cytokine, GO annotation line 13 of 17: 7.57
  cytokine, GO annotation line 14 of 17: 7.13
  cytokine, GO annotation line 15 of 17: 10.1
  cytokine, GO annotation line 16 of 17: 0
  cytokine, GO annotation line 17 of 17: 0
  defense response, GO annotation line 1 of 11: 57.8
  defense response, GO annotation line 2 of 11: 29.6
  defense response, GO annotation line 3 of 11: 24.9
  defense response, GO annotation line 4 of 11: 18.4
  defense response, GO annotation line 5 of 11: 5.98
  defense response, GO annotation line 6 of 11: 6.22
  defense response, GO annotation line 7 of 11: 0
  defense response, GO annotation line 8 of 11: 0
  defense response, GO annotation line 9 of 11: 0
  defense response, GO annotation line 10 of 11: 0
  defense response, GO annotation line 11 of 11: 0
  immune response, GO annotation line 1 of 8: 46.1
  immune response, GO annotation line 2 of 8: 20.8
  immune response, GO annotation line 3 of 8: 19.5
  immune response, GO annotation line 4 of 8: 11.9
  immune response, GO annotation line 5 of 8: 9.97
  immune response, GO annotation line 6 of 8: 12.1
  immune response, GO annotation line 7 of 8: 0
  immune response, GO annotation line 8 of 8: 0
  inflammatory response, GO annotation line 1 of 5: 29.8
  inflammatory response, GO annotation line 2 of 5: 11.4
  inflammatory response, GO annotation line 3 of 5: 3.69
  inflammatory response, GO annotation line 4 of 5: 0
  inflammatory response, GO annotation line 5 of 5: 0
  innate immune response, GO annotation line 1 of 6: 33.7
  innate immune response, GO annotation line 2 of 6: 19.7
  innate immune response, GO annotation line 3 of 6: 16.7
  innate immune response, GO annotation line 4 of 6: 16.2
  innate immune response, GO annotation line 5 of 6: 14.3
  innate immune response, GO annotation line 6 of 6: 0
  interleukin-6: interleukin-6 production: 3.6
  interleukin-6: positive regulation of interleukin-6 production: 0
  interleukin-6: regulation of interleukin-6 production: 4.17
  interleukin-12: interleukin-12 production: 8.76
  interleukin-12: positive regulation of interleukin-12 production: 3.24
  interleukin-12: regulation of interleukin-12 production: 9.49
  migration, GO annotation line 1 of 10: 13.6
  migration, GO annotation line 2 of 10: 8.98
  migration, GO annotation line 3 of 10: 14.2
  migration, GO annotation line 4 of 10: 7.86
  migration, GO annotation line 5 of 10: 7.57
  migration, GO annotation line 6 of 10: 6.55
  migration, GO annotation line 7 of 10: 6.19
  migration, GO annotation line 8 of 10: 4.49
  migration, GO annotation line 9 of 10: 0
  migration, GO annotation line 10 of 10: 0
  stress, GO annotation line 1 of 3: 57.7
  stress, GO annotation line 2 of 3: 28.5
  stress, GO annotation line 3 of 3: 9.02
  wounding, GO annotation line 1 of 3: 12.1
  wounding, GO annotation line 2 of 3: 12.8
  wounding, GO annotation line 3 of 3: 9.45
[1]; mouse, in vivo
  NF-kappa B signaling pathway, GO annotation line 2 of 4: 12.9
  chemotaxis, GO annotation line 3 of 11: 15.7
Liver (LV); hierarchical clustering
  adjuvant group (cluster) in LV: G3
Liver (LV); i.d. administration, fold change <0.667, p<0.01, customized PA call=1, 6 h after adjuvant
  Number of gene probes with statistically significant changes (sDEGs), LV, Down: 1972
Liver (LV); i.d. administration, fold change >1.5, p<0.01, customized PA call=1, 6 h after adjuvant
  Number of gene probes with statistically significant changes (sDEGs), LV, Up: 2094
